Values of other authors, collected in patent US12310973B2, “Administration and dosage of diaminophenothiazines” (WisTa Laboratories Ltd., priority 2016, dated 2025).

Assays:
[1] = system: huntingtin derivative containing a polyglutamine stretch of 102 residues; conditions: tested at 0, 10 and 100 μM; zebrafish; cited from earlier work
[2] = system: TDP-43 aggregates in SH-SY5Y cells; conditions: 0.05 μM MT; cited from earlier work

Substance: methylthioninium [MT]
- Formation of aggregates of huntingtin derivative (polyglutamine stretch of 102 residues) [1]: prevented the formation of such aggregates in zebrafish in a dose dependent manner
- Reduction in number of TDP-43 aggregates [2]: 50%
